This is an account of results in patent US20130072495A1, “FUSED BICYCLIC KINASE INHIBITORS” (OSI Pharmaceuticals, LLC, priority 2010, published 2013).

The subject of the assay is MKN45 cells. The assay is described as follows: MKN45 cell proliferation assay (CellTiter-Glo). It is filed as cell-based. The settings on record: Homo sapiens, MKN-45, 72 h; MKN45 cell line, 3 days incubation, at least duplicate experiments; read-out: Prolif. IC50. On the procedure:
The effect of inhibitors on the proliferation of MKN45 cells was determined using the following protocol. MKN45 cells were plated in Corning 3917 96-well white tissue culture treated plates in growth medium (RPMI, 10% FCS) at a density of 5000 cells/well in a total volume of 135 μL and incubated at 37° C., 5% CO2, 95% humidity overnight. The following day, one-tenth volume of a 10× concentration of compounds was added to the wells in an 8-point dilution series. The dilution series was composed of an initial 1:5 dilution of a 10 mM stock of compound in DMSO, followed by serial 1:4 dilutions in DMSO, then a 1:20 dilution in growth medium prior to the 1:10 dilution into the cell plate. Final DMSO concentration on the cells was 0.1%, there were control wells treated with both 0.1% DMSO and no DMSO. The typical dilution range is 10 μM to 0.6 nM. Once the compound was added to the cells, plates were incubated for 3 days at 37° C., 5% CO2 at 95% humidity. On the third day, after allowing all cells and reagents to come to room temperature, 25 μL of CellTiter-Glo reagent (Promega # G7573) was added to the wells. Plates were shaken on a platform for 10 minutes prior to reading luminescence for 0.1 seconds. The signal of the control wells was taken as 100% growth and growth inhibition was expressed as percent of control. IC50 values were determined from the percent of control data using a standard four-parameter model.
The IC50 values of exemplary compounds of the present invention determined in a cell proliferation assay using the MKN45 cell line according to the procedures described herein in at least duplicate experiments are abbreviated as follows and are shown in Table 1: A, IC50≦0.1 μM; B, 0.1 μM<IC50≦0.5 μM; C, 0.5 μM<IC50≦2 μM; D, IC50>2 μM; ND, not determined. The Example # of Table 1 corresponds to the compound example number as illustrated in the Experimental section above.
Treatment of this cell line with a selective MET inhibitor led to induction of apoptosis and inhibition of proliferation, whereas non-MET-amplified cell lines were not affected. Smolen et al., Proc. Natl. Acad. Sci. USA, 103(7):2316-2321 (2006). This cell line is thus “driven” by MET, and antiproliferative effects correlate very well with the inhibition of MET phosphorylation so that the cell proliferation IC50 values can be used as surrogate for the MET cell mechanistic IC50 values. Under the assay conditions described herein, the IC50 values correlate nearly 1:1.
On the technique in general: Cellular ATP, detected with luciferase, serves as a proxy for viable cell number.

Some results are limits rather than exact numbers.

For orientation: IC50 means the concentration that gives 50% inhibition. For `CC(c1c(Cl)ccc(F)c1Cl)c1c[nH]c2nnc(-c3cnn(C)c3)cc12` (stereo not drawn) [Example 15, 5-[1-(2,6-Dichloro-3-fluorophenyl)ethyl]-3-(1-methyl-1H-pyrazol-4-yl)-7H-pyrrolo[2,3-c]pyridazine], the half-maximal inhibitory concentration (IC50) was over 2000 nM. The same measure for `COc1ccc(F)c(Cl)c1[C@@H](C)c1n[nH]c2ncc(-c3cnn(C4CCNCC4)c3)cc12` [Example 12, 3-[(1R)-1-(2-chloro-3-fluoro-6-methoxyphenyl)ethyl]-5-[1-(piperidin-4-yl)-1H-pyrazol-4-yl]-1H-pyrazolo[3,4-b]pyridine]: at most 100 nM; for `COc1ccc(F)c(Cl)c1[C@@H](C)c1n[nH]c2ncc(-c3cnn(C)c3)cc12` [Example 14, 3-[(1R)-1-(2-chloro-3-fluoro-6-methoxyphenyl)ethyl]-5-(1-methyl-1H-pyrazol-4-yl)-1H-pyrazolo[3,4-b]pyridine]: 100 to 500 nM. The value for `COc1ccc(F)c(Cl)c1C(C)c1n[nH]c2ncc(-c3cnn([C@H]4CC[C@H](O)CC4)c3)cc12` (relative stereo) [Example 9, trans-4-(4-{3-[1-(2-Chloro-3-fluoro-6-methoxyphenyl)ethyl]-1H-pyrazolo[3,4-b]pyridin-5-yl}-1H-pyrazol-1-yl)cyclohexanol] was at most 100 nM; that for `COc1ccc(F)c(Cl)c1[C@@H](C)c1n[nH]c2ncc(-c3cnn(C[C@H](O)CO)c3)cc12` [Example 13, (2S)-3-(4-{3-[(1R)-1-(2-chloro-3-fluoro-6-methoxyphenyl)ethyl]-1H-pyrazolo[3,4-b]pyridin-5-yl}-1H-pyrazol-1-yl)propane-1,2-diol] was 100 to 500 nM.

For `COc1ccc(F)c(Cl)c1[C@H](C)c1n[nH]c2ncc(-c3cnn([C@H]4CC[C@H](O)CC4)c3)cc12` [Example 11, trans-4-(4-{3-[(1S)-1-(2-Chloro-3-fluoro-6-methoxyphenyl)ethyl]-1H-pyrazolo[3,4-b]pyridin-5-yl}-1H-pyrazol-1-yl)cyclohexanol], the IC50 was over 2000 nM.
